Key:
Rattus norvegicus [1] = species on record: Rattus norvegicus; experiment: Potency measured relative to that of fenclofenac; type: functional
Rattus norvegicus [2] = experiment: Antiinflammatory activity in rats, at a dose of 10 mg/kg po(significant toxicity at 100 mg/kg), by adjuvant-induced arthritis test; type: functional
Rattus norvegicus [3] = experiment: Antiinflammatory activity in rats, at a dose of 0.08 mg/kg po, using adjuvant-induced arthritis test; type: functional
Rattus norvegicus [4] = experiment: Antiinflammatory activity in rats, at a dose of 10 mg/kg po, activity expressed as minimum ulcerogenic dose(MUD) for a period of 24 hr; Value ranges from (100-200); type: functional
Rattus norvegicus [5] = experiment: Antiinflammatory activity in rats, at a dose of 10 mg/kg po(showed some toxicity at this dose level), using adjuvant-induced arthritis test; type: functional
Rattus norvegicus [6] = experiment: Antiinflammatory activity in rats, at a dose of 2 mg/kg po, using adjuvant-induced as arthritis test; type: functional
Rattus norvegicus [7] = species on record: Rattus norvegicus; experiment: Potency measured relative to that of fenclofenac.; type: functional
[8] = Median lethal dose using 10 rats per dose.; type: ADME, organism-based; settings: rat, in vivo
Rattus norvegicus [9] = experiment: Antiinflammatory activity in rats, at a dose of 10 mg/kg po(significant toxicity at 100 mg/kg), activity expressed as minimum ulcerogenic dose(MUD) for a period of 24 hr; Value ranges from (200-400); type: functional
Rattus norvegicus [10] = experiment: Antiinflammatory activity in rats, at a dose of 100 mg/kg po, activity expressed as minimum ulcerogenic dose(MUD) for a period of 24 hr; Value ranges from (400-800); type: functional
Rattus norvegicus [11] = experiment: Antiinflammatory activity in rats, at a dose of 100 mg/kg po, using adjuvant-induced arthritis test; type: functional
Rattus norvegicus [12] = species on record: Rattus norvegicus; experiment: Antiinflammatory activity in rats, activity expressed as minimum ulcerogenic dose(MUD) for a period of 24 hr.; type: functional

For `O=C(O)Cc1ccccc1Oc1cc(Cl)cc(Cl)c1Cl`, the Relative potency (Rattus norvegicus [1]) was 1.5 and the Inhibition (Rattus norvegicus [2]) was 21%.

`O=C(O)Cc1ccccc1Nc1c(Cl)c(Cl)cc(Cl)c1Cl` showed an inhibition in vivo at 0.08 mg/kg (Rattus norvegicus [3]) of 18%.

`O=C(O)Cc1ccccc1Oc1c(Cl)cc(Cl)c(Cl)c1Cl` showed a Relative potency (Rattus norvegicus [1]) of 8 and an Inhibition (Rattus norvegicus [2]) of 43%.

For `O=C(O)Cc1ccccc1Oc1c(Cl)c(Cl)cc(Cl)c1Cl`, the MUD (Rattus norvegicus [4]) was 200 mg/kg, the inhibition in vivo at 10 mg/kg (Rattus norvegicus [5]) was 44% and the inhibition in vivo at 2 mg/kg (Rattus norvegicus [6]) was 38%. For the same molecule, the Relative potency (Rattus norvegicus [7]) was 40 and the LD50 [8] was 303 mg/kg.

With `O=C(O)Cc1ccccc1Sc1c(Cl)c(Cl)cc(Cl)c1Cl` the Relative potency (Rattus norvegicus [1]) was 0.21 and the inhibition in vivo at 0.08 mg/kg (Rattus norvegicus [3]) was under 22%.

Work on `O=C(O)Cc1ccccc1Oc1c(Cl)ccc(Cl)c1Cl` yielded a Relative potency (Rattus norvegicus [1]) of 14, an Inhibition (Rattus norvegicus [2]) of 51% and an MUD (Rattus norvegicus [9]) of 400 mg/kg.

Molecule `O=C(O)Cc1ccccc1Oc1ccc(Cl)cc1Cl` [FENCLOFENAC] has an MUD (Rattus norvegicus [10]) of 800 mg/kg, a Relative potency (Rattus norvegicus [7]) of 1 and an inhibition in vivo at 100 mg/kg (Rattus norvegicus [11]) of 35%.

With `O=C(O)Cc1ccccc1[S+]([O-])c1c(Cl)c(Cl)cc(Cl)c1Cl` (stereo unspecified) the inhibition in vivo at 0.08 mg/kg (Rattus norvegicus [3]) was 19%.

In the case of `COc1ccc2c(c1)c(CC(=O)O)c(C)n2C(=O)c1ccc(Cl)cc1` [INDOMETHACIN], the LD50 [8] is reported as 19.8 mg/kg and the MUD (Rattus norvegicus [12]) is reported as 1.25 mg/kg.
